Test results from patent US20230382894A1, “CCR4 ANTAGONISTS” (CHEMOCENTRYX, INC., priority 2022, published 2023).

Biological target: T1, CCR4 (Homo sapiens, UniProt P51679)
T1 construct: CEM Cells Endogenous Express CCR4; endogenous in cells; host or cells: CEM cells
T1 sequence (P51679 1-360): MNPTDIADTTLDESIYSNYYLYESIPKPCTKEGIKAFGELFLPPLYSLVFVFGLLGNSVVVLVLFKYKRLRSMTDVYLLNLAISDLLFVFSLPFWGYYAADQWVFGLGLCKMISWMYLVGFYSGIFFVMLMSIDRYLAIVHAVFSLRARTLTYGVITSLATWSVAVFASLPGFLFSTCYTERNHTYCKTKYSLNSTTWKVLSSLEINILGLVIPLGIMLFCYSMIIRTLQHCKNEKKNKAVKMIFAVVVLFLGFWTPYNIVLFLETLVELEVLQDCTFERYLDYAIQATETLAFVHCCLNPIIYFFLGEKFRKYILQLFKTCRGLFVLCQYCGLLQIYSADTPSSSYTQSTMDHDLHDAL
Assay: CEM cell chemotaxis (migration) assay to CCL22 (MDC) in 100% Fetal Bovine Serum (FBS)
Assay type: cell-based
Details: CEM cells in 100% FBS with 1% HEPEs; recombinant human CCL22 0.1 nM; 37° C. 60 minutes
Source text: CEM Cells Endogenous Express CCR4
A chemotaxis assay can be used to determine the efficacy of potential receptor antagonists at blocking the migration mediated through chemokine receptors, such as CCR4. This assay is routinely performed using the ChemoTX® microchamber system with a 5 μm pore-sized polycarbonate membrane.
FBS: CEM Cells are collected by centrifugation at 400×g at room temperature, then suspended at 5 million/ml in 100% Fetal Bovine Serum (FBS) with 1% HEPEs. The compound being tested is serially diluted from a maximum final concentration of 10 μM (or an equivalent volume of its solvent (DMSO)) and is then added to the cell/buffer mixture. Separately, recombinant human CCL22 (MDC) at its EC50 concentration (0.1 nM) is placed in the lower wells of the ChemoTX® plate. The 5-μm (pore size) polycarbonate membrane was placed onto the plate, and 20 μL of the cell/compound mixture is transferred onto each well of the membrane. The plates are incubated at 37° C. for 60 minutes, after which the polycarbonate membranes are removed and 5 μl of the DNA-intercalating dye CyQUANT (Invitrogen, Carlsbad, CA) is added to the lower wells. The amount of fluorescence, corresponding to the number of migrated cells, is measured using a Spectrafluor Plus plate reader (TECAN, San Jose, CA).

Structure (SMILES)	IC50 [nM]
COc1nc(N2CCN(C(=O)[C@H]3CCCN3)CC2)nc(N[C@H](C)c2ccc(Cl)cc2Cl)c1Cl [Example 1.175]	< 100
COc1cnc(N2CCC(NC(=O)[C@H]3CCCN3)CC2)nc1N[C@H](C)c1ccc(Cl)cc1Cl [Example 1.176]	< 100
C[C@@H](Nc1nc(N2CCC(O[C@H]3CCN(C)C3)CC2)ncc1Cl)c1ccc(Cl)cc1Cl [Example 1.178]	< 100
COc1cnc(N2CC[C@H](NC(=O)[C@H]3CCCN3)[C@@H](O)C2)nc1N[C@H](C)c1ccc(Cl)cc1Cl [Example 1.179]	< 100
CCOc1cnc(N2CCN(C(=O)[C@H]3CCC(=O)N3)CC2)nc1N[C@H](C)c1ccc(Cl)cc1Cl [Example 1.182]	< 100
CCOc1cnc(N2CCN(C(=O)CCN(C)C)CC2)nc1N[C@H](C)c1ccc(Cl)cc1Cl [Example 1.183]	< 100
CCOc1cnc(N2CCN(C(=O)[C@H]3CCN(C)C3)CC2)nc1N[C@H](C)c1ccc(Cl)cc1Cl [Example 1.184]	< 100
C[C@@H](Nc1nc(N2CCC(O[C@@H]3CNC[C@H]3F)CC2)ncc1Cl)c1ccc(Cl)cc1Cl [Example 1.186]	< 100
COc1cnc(N2CCN(C(=O)CCN(C)C)CC2)nc1N[C@H](C)c1ccc(Cl)cc1Cl [Example 1.187]	< 100
COc1cnc(N2CCN(C(=O)[C@H]3CCC(=O)N3)CC2)nc1N[C@H](C)c1ccc(Cl)cc1Cl [Example 1.188]	< 100
C[C@@H](Nc1nc(N2CCN(C(=O)CCN3CCCC3=O)CC2)ncc1Cl)c1ccc(Cl)cc1Cl [Example 1.191]	100 to 1000
C[C@@H](Nc1nc(N2CCN(C(=O)CN3CCCC3)CC2)ncc1Cl)c1ccc(Cl)cc1Cl [Example 1.192]	< 100
C[C@@H](Nc1nc(N2CCN(C(=O)[C@H]3CC4(CC4)C(=O)N3)CC2)ncc1Cl)c1ccc(Cl)cc1Cl [Example 1.195]	100 to 1000
COc1cnc(N2CCN(C(=O)[C@H]3CCCN3)CC2)nc1N[C@H](C)c1ccc(Cl)cc1Cl [Example 1.197]	< 100
C[C@@H](Nc1nc(N2CCN(C(=O)[C@H]3CCC(=O)N3)CC2)ncc1Cl)c1c(F)cc(Cl)cc1Cl [Example 1.198]	< 100
C[C@@H](Nc1nc(N2CCN(C(=O)[C@H]3CCC(=O)N3)CC2)ncc1Cl)c1cc(F)c(Cl)cc1Cl [Example 1.202]	< 100
C[C@@H](Nc1nc(N2CC[C@H](NC(=O)CN(C)C)[C@@H](O)C2)ncc1Cl)c1ccc(Cl)cc1Cl [Example 1.203]	100 to 1000
C[C@@H](Nc1nc(N2CCN(C(=O)C3(N)CCOCC3)CC2)ncc1Cl)c1ccc(Cl)cc1Cl [Example 1.205]	100 to 1000
C[C@@H](Nc1nc(N2CC[C@H](NC(=O)[C@H]3CCN(C)C3)[C@@H](O)C2)ncc1Cl)c1ccc(Cl)cc1Cl [Example 1.206]	< 100

Structure (SMILES)	IC50 [nM]
C[C@@H](Nc1nc(N2CCN(C(=O)[C@]3(C)CCCN3)CC2)ncc1Cl)c1ccc(Cl)cc1Cl [Example 1.208]	< 100
C[C@@H](Nc1nc(N2CCN(C(=O)C3CNC(=O)CN3)CC2)ncc1Cl)c1ccc(Cl)cc1Cl (some centres unmarked) [Example 1.209]	100 to 1000
C[C@@H](Nc1nc(N2CCN(C(=O)[C@@]3(C)CCCN3)CC2)ncc1Cl)c1ccc(Cl)cc1Cl [Example 1.210]	< 100
C[C@@H](Nc1nc(N2CCC(O[C@@H]3CCNC3)CC2)ncc1Cl)c1ccc(Cl)cc1Cl [Example 1.211]	< 100
C[C@@H](Nc1nc(N2CCN(C(=O)C3(N)COC3)CC2)ncc1Cl)c1ccc(Cl)cc1Cl [Example 1.212]	> 1000
CC(C)N1CCCC(C2CCN(c3ncc(Cl)c(N[C@H](C)c4ccc(Cl)cc4Cl)n3)CC2)C1 (some centres unmarked) [Example 1.214]	< 100
C[C@@H](Nc1nc(N2CCN(C(=O)c3cn(C)cn3)CC2)ncc1Cl)c1ccc(Cl)cc1Cl [Example 1.217]	100 to 1000
C[C@@H](Nc1nc(N2CCN(C(=O)[C@H]3CCCN3CCC(F)(F)F)CC2)ncc1Cl)c1ccc(Cl)cc1Cl [Example 1.219]	100 to 1000
C[C@@H](Nc1nc(N2CCC([C@H]3CCCN(CCC(=O)O)C3)CC2)ncc1Cl)c1ccc(Cl)cc1Cl [Example 1.221]	< 100
C[C@@H](Nc1nc(N2CCN(C(=O)[C@H]3CNC(=O)N3)CC2)ncc1Cl)c1ccc(Cl)cc1Cl [Example 1.222]	< 100
C[C@@H](Nc1nc(N2CCC(NC(=O)[C@H]3CN(C)C(=O)N3)CC2)ncc1Cl)c1ccc(Cl)cc1Cl [Example 1.223]	> 1000
C[C@@H](Nc1nc(N2CC[C@H](NC(=O)[C@H]3CCCN3C)[C@@H](O)C2)ncc1Cl)c1ccc(Cl)cc1Cl [Example 1.224]	< 100
C[C@@H](Nc1nc(N2CCN(C(=O)[C@H]3CCC(C)(C)N3)CC2)ncc1Cl)c1ccc(Cl)cc1Cl [Example 1.225]	< 100
C[C@@H](Nc1nc(N2CCN(C(=O)[C@H]3CN(C)C(=O)N3)CC2)ncc1Cl)c1ccc(Cl)cc1Cl [Example 1.227]	< 100
C[C@@H](Nc1nc(N2CCN(C(=O)[C@@H]3CNCC(=O)N3)CC2)ncc1Cl)c1ccc(Cl)cc1Cl [Example 1.229]	> 1000
C[C@@H](Nc1nc(N2CCC(O[C@H]3CCNC3)CC2)ncc1Cl)c1ccc(Cl)cc1Cl [Example 1.230]	< 100
C[C@@H](Nc1nc(N2CCN(C(=O)C3(C)CCN(C)C3)CC2)ncc1Cl)c1ccc(Cl)cc1Cl (some centres unmarked) [Example 1.231]	< 100
C[C@@H](Nc1nc(N2CCN(C(=O)C[C@H]3CCC(=O)N3)CC2)ncc1Cl)c1ccc(Cl)cc1Cl [Example 1.234]	100 to 1000

Second part, the compound after the results:

IC50 [nM]	Structure (SMILES)
< 100	CC(C)Oc1cnc(N2CCN(C(=O)[C@H]3CCCN3)CC2)nc1N[C@H](C)c1ccc(Cl)cc1Cl [Example 1.174]
< 100	COc1cnc(N2CCN(C(=O)C[C@@H]3CCCN3)CC2)nc1N[C@H](C)c1ccc(Cl)cc1Cl [Example 1.177]
< 100	C[C@@H](Nc1nc(N2CCN(C(=O)C[C@@H]3CCCN3)CC2)ncc1Cl)c1ccc(Cl)cc1Cl [Example 1.180]
< 100	CCOc1cnc(N2CCN(C(=O)[C@H]3CCCN3)CC2)nc1N[C@H](C)c1ccc(Cl)cc1Cl [Example 1.181]
< 100	C[C@@H](Nc1nc(N2CCN(C(=O)CCN3CCCC3)CC2)ncc1Cl)c1ccc(Cl)cc1Cl [Example 1.185]
< 100	COc1cnc(N2CCN(C(=O)[C@H]3CCN(C)C3)CC2)nc1N[C@H](C)c1ccc(Cl)cc1Cl [Example 1.189]
< 100	C[C@@H](Nc1nc(N2CCC(O[C@@H]3CNC[C@@H]3F)CC2)ncc1Cl)c1ccc(Cl)cc1Cl [Example 1.190]
< 100	C[C@@H](Nc1nc(N2CCC(O[C@H]3CCN(CCO)C3)CC2)ncc1Cl)c1ccc(Cl)cc1Cl [Example 1.193]
100 to 1000	C[C@@H](Nc1nc(N2CC[C@H](N(C)C(=O)[C@H]3CCCN3)[C@@H](O)C2)ncc1Cl)c1ccc(Cl)cc1Cl [Example 1.194]
100 to 1000	C[C@@H](Nc1nc(N2CCN(C(=O)CCN3CCOCC3)CC2)ncc1Cl)c1ccc(Cl)cc1Cl [Example 1.196]
100 to 1000	C[C@@H](Nc1nc(N2CCC(OC3CNC3)CC2)ncc1Cl)c1ccc(Cl)cc1Cl [Example 1.199]
< 100	C[C@@H](Nc1nc(N2CCN(C(=O)[C@H]3CCCNC3)CC2)ncc1Cl)c1ccc(Cl)cc1Cl [Example 1.201]
< 100	C[C@H]1CC[C@H](C(=O)N2CCN(c3ncc(Cl)c(N[C@H](C)c4ccc(Cl)cc4Cl)n3)CC2)N1 [Example 1.204]
100 to 1000	C[C@@H](Nc1nc(N2CCN(C(=O)[C@H]3CCCN3)CC2)ncc1C#N)c1ccc(Cl)cc1Cl [Example 1.207]
100 to 1000	C[C@@H](Nc1nc(N2CCN(C(=O)[C@H](N)CO)CC2)ncc1Cl)c1ccc(Cl)cc1Cl [Example 1.213]
100 to 1000	COC[C@@H](N)C(=O)N1CCN(c2ncc(Cl)c(N[C@H](C)c3ccc(Cl)cc3Cl)n2)CC1 [Example 1.215]
100 to 1000	C[C@@H](Nc1nc(N2CC[C@H](NC(=O)[C@H]3C[C@@H](O)CN3)[C@@H](O)C2)ncc1Cl)c1ccc(Cl)cc1Cl [Example 1.216]
> 1000	C[C@@H](Nc1nc(N2CC[C@H](NC(=O)[C@H]3CN(C)C(=O)N3)[C@@H](O)C2)ncc1Cl)c1ccc(Cl)cc1Cl [Example 1.218]
< 100	C[C@@H](Nc1nc(N2CCC([C@@H]3CCCN(CCC(=O)O)C3)CC2)ncc1Cl)c1ccc(Cl)cc1Cl [Example 1.220]
100 to 1000	C[C@@H](Nc1nc(N2CCC(C(=O)N[C@@H]3CCNC3=O)CC2)ncc1Cl)c1ccc(Cl)cc1Cl [Example 1.228]
100 to 1000	C[C@@H](Nc1nc(N2CCN(C(=O)[C@H]3CC(=O)N3)CC2)ncc1Cl)c1ccc(Cl)cc1Cl [Example 1.232]
> 1000	C[C@@H](Nc1nc(N2CCC(C(=O)N[C@H]3CCNC3=O)CC2)ncc1Cl)c1ccc(Cl)cc1Cl [Example 1.233]
